For one assay, the target named is T1, hTLR7 (Homo sapiens, UniProt Q9NYK1).
T1 construct: host or cells: HEK-hTLR7-NF-κB-Luciferase cells
T1 sequence (Q9NYK1 27-1049): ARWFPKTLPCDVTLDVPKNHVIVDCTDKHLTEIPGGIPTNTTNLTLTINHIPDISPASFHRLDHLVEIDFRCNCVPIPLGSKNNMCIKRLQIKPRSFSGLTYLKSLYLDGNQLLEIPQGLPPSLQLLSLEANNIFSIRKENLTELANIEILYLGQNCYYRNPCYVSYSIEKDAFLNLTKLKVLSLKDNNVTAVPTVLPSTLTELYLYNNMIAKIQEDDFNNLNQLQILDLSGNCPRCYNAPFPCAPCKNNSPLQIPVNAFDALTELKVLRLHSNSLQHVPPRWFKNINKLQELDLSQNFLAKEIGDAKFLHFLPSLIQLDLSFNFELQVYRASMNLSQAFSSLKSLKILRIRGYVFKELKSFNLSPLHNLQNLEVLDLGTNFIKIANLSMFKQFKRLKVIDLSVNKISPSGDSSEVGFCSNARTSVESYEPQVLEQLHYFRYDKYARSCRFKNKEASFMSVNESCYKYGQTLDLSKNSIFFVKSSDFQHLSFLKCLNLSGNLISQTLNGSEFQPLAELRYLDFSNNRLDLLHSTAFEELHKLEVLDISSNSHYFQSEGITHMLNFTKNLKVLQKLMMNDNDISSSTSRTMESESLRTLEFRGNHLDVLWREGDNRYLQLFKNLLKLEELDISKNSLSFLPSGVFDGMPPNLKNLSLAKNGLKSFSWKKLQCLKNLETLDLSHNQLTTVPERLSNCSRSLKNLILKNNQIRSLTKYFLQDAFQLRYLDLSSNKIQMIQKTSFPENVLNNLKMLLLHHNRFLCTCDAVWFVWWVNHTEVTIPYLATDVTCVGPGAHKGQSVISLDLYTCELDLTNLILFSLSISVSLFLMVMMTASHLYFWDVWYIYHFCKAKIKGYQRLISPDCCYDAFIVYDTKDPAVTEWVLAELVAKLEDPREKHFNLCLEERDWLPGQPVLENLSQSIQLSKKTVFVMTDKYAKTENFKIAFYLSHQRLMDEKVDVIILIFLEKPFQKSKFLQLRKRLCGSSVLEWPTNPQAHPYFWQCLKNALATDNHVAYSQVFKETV
Briefly: Agonistic effect on hTLR7, HEK-hTLR7-NF-κB-Luciferase reporter cells. Type of assay: cell-based. As to conditions: 16 hours. The text has this:
Experimental Example 3: Agonistic Effect of the Compound of the Invention on hTLR7
In this test, the luciferase in HEK-hTLR7-NF-κB-reporter cells was detected to test the activating effect of the compound of the invention on TLR7 signaling pathway, so as to evaluate the specificity of the agonistic effect of the compound on NLRP3 pathway.
Reagents: DMEM (High glucose); FBS (fetal bovine serum) (Gibco); Bright-Glo™ Luciferase detection kit (Promega)
Cells: HEK-hTLR7-NF-κB-Luciferase gene cells (human TLR7 NF-κB-luciferase reporter gene cells) (Nanjing Cobioer)
1) The HEK-hTLR7-NF-κB-Luciferase cells in a logarithmic growth phase were trypsinized and resuspended in the medium to a concentration of 2×10^6 cells/mL. 50 μL/well of the cell resuspension was added to a 96-well plate such that the number of cells in each well was […]. An appropriate amount of 10 mM DMSO solution of the compound to be tested was taken and diluted to a concentration of 2× test concentration with the medium. 50 μL/well was added to the cells in the 96-well plate, and the 96-well plate was incubated in an incubator at 37° C. and 5% CO2 for 16 hours. The medium was DMEM (High glucose) containing 10% FBS.
2) After the cell incubation, 100 μL/well of Bright-Glo™ Luciferase detection reagent was added, and the mixture was incubated at room temperature for 5 minutes. Relative luciferase activity unit (RLU) was read using a microplate reader.
3) The EC50 of effect of the tested compound to stimulate hTLR7 was fitted by the GraphPad software log(agonist) vs. response—Variable slope four-parameter method.
A general note: In a reporter assay the amount or activity of a reporter protein is the signal.

A further assay concerns the target T2, hNLRP3 inflammasome (Homo sapiens, UniProt Q96P20).
T2 construct: endogenous in cells; host or cells: THP-1 cells, PMA-differentiated
Briefly: Agonistic effect on the expression of IL-1β in THP-1 cells after PMA-induced differentiation (HTRF). Type of assay: cell-based. The settings on record: IL-1β level, PMA-differentiated THP-1 cells, 6 hours. The source says:
Experimental Example 1: Agonistic Effect of the Compound of the Invention on the Expression of IL-1β in THP-1 Cells after PMA-Induced Differentiation
In this test, a HTRF (homogeneous time-resolved fluorescence) detection method was used to test the effect of the compound of the invention on the level of downstream cytokine IL-1β of NLRP3 to evaluate the agonistic effect of the compound on hNLRP3 inflammasome or hNLRP3 inflammasome pathway at a cellular level.
Reagent: RPMI 1640 (Hyclone); heat-inactivated FBS (fetal bovine serum) (Gibco); PMA (phorbol myristal acetate) (Beyotime)
Kit: IL-1β assay kit (CISIO)
1) THP-1 cells in a logarithmic growth phase were seeded in a T75 culture flask at a density of 5×10^5 cells/well, and cultured in a cell incubator at 37° C., 5% CO2 for 24 hours, and then 1 μM PMA was used to induce THP-1 suspension cells to become adherent macrophages. The medium was RPMI 1640 containing 10% heat-inactivated FBS and 0.05 mM β-mercaptoethanol.
2) The cells were induced and cultured for 24 hours. Then the adherent cells were trypsinized and centrifuged at 1000 rpm for 5 min. The supernatant was removed, and the cells were resuspended to a density of 2×10^6 cells/mL in RPMI 1640 medium containing 2% heat-inactivated FBS. 50 μL/well of cell resuspension was taken and spread on a 96-well plate such that the number of cells in each well was 1×10^5.
3) An appropriate amount of 10 mM DMSO solution of the compound to be tested was taken and diluted to a concentration of 2× test concentration with RPMI 1640 medium containing 2% heat-inactivated FBS. 50 μL/well of the dilution was added to the cells in the 96-well plate, and mixed well. The plate was placed in a cell incubator at 37° C., 5% CO2 for 6 hours. The supernatant was collected, and the level of IL-1β was measured in accordance with the instructions of the IL-1β detection kit.
4) EC50 was fitted by the GraphPad software log(agonist) vs. response—Variable slope four-parameter method.
(In general: TR-FRET usually uses a lanthanide donor and a delayed reading to cut background.)

Among the data in patent US20220056043A1, “NITROGEN-CONTAINING FUSED CYCLIC COMPOUND, PREPARATION METHOD THEREFOR AND USE THEREOF” (SICHUAN KELUN-BIOTECH BIOPHARMACEUTICAL CO., LTD., priority 2019, published 2022) are EC50 values, retold here.

Structures are written as SMILES. Where a name gives a salt, the structure may show the parent alone.

T2 sequence (Q96P20 whole entry): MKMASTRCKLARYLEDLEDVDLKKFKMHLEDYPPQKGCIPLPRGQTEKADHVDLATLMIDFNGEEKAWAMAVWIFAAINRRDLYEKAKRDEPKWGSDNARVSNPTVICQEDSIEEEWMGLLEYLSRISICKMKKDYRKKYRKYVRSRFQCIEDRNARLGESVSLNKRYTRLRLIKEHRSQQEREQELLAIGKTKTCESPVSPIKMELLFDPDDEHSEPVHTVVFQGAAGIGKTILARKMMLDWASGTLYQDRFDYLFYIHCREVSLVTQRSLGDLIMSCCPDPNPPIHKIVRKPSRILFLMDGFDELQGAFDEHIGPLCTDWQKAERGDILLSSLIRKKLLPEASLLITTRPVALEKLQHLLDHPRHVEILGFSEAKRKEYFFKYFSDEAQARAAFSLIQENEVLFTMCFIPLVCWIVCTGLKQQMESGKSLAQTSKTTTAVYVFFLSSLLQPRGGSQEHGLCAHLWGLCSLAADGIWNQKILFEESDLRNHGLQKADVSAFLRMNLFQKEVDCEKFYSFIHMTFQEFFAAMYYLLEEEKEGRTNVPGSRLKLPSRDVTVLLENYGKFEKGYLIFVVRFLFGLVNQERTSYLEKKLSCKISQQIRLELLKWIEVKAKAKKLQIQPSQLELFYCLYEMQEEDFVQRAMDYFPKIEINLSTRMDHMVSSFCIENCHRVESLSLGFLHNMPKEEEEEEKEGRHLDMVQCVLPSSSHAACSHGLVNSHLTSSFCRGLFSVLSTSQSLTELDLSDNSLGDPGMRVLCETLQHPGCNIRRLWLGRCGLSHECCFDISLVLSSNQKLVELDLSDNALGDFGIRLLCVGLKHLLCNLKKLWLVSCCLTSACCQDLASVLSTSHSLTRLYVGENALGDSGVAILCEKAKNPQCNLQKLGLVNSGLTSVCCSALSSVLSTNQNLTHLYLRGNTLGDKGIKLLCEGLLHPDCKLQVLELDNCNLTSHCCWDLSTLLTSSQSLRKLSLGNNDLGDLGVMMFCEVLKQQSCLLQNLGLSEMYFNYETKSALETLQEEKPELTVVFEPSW

The EC50 is the concentration needed to bring the measured effect to its halfway point. For `Nc1cc(N[C@H]2CC[C@H](O)C2)c2sc(-c3ccn[nH]3)cc2n1` [Compound 26, (1S,3S)-3-((5-amino-2-(1H-pyrazol-5-yl)thieno[3,2-b]pyridin-7-yl)amino)cyclopentanol], the 50% effective concentration (EC50) on hTLR7 is more than 100 µM; at hNLRP3 inflammasome it was 0.1 µM.
For `Nc1cc(N[C@@H]2CC[C@@H](O)C2)c2sc(-c3ccn[nH]3)cc2n1` [Compound 30s, (1R,3R)-3-((5-amino-2-(1H-pyrazol-5-yl)thieno[3,2-b]pyridin-7-yl)amino)cyclopentanol hydrochloride], in that order: more than 100 µM and 0.02 µM.
As to `Nc1cc(N[C@@H]2CC[C@H](O)C2)c2sc(-c3ccn[nH]3)cc2n1` [Compound 31, (1S,3R)-3-((5-amino-2-(1H-pyrazol-5-yl)thieno[3,2-b]pyridin-7-yl)amino)cyclopentanol], the figures for the EC50 at hTLR7 and at hNLRP3 inflammasome were more than 100 µM and 0.11 µM, respectively.
The matching figures for `C[C@H](O)CNc1cc(N)nc2cc(-c3ccn[nH]3)sc12` [Compound 33]: more than 100 µM and 0.26 µM.
On to `Nc1cc(NC2CC(O)C2)c2sc(-c3ccn[nH]3)cc2n1` (centres unmarked) [Compound 40, 3-((5-amino-2-(1H-pyrazol-5-yl)thieno[3,2-b]pyridin-7-yl)amino)cyclobutanol], for which the figures for the EC50 on hTLR7 and at hNLRP3 inflammasome were more than 100 µM and 0.39 µM, respectively.
The matching figures for `CN1CC[C@H](Nc2cc(N)nc3cc(-c4ccn[nH]4)sc23)C1` [Compound 51, (S)—N^7-(1-methylpyrrolidin-3-yl)-2-(1H-pyrazol-5-yl)thieno[3,2-b]pyridine-5,7-diamine]: more than 100 µM and 0.33 µM.
For `CC(=O)NCCNc1cc(N)nc2cc(-c3ccn[nH]3)sc12` [Compound 52], in that order: more than 100 µM and 0.2 µM.
On to `CC(=O)NCCCNc1cc(N)nc2cc(-c3ccn[nH]3)sc12` [Compound 53], for which the EC50 at hTLR7 was more than 100 µM; on hNLRP3 inflammasome, 0.18 µM.
For `CN1CCN(CCCNc2cc(N)nc3cc(-c4ccn[nH]4)sc23)CC1` [Compound 54, N^7-(3-(4-methylpiperazin-1-yl)propyl)-2-(1H-pyrazol-5-yl)thieno[3,2-b]pyridine-5,7-diamine], in that order: more than 100 µM and 0.92 µM.
For `Nc1cc(NCCN2CCOCC2)c2sc(-c3ccn[nH]3)cc2n1` [Compound 55, N^7-(2-morpholinoethyl)-2-(1H-pyrazol-5-yl)thieno[3,2-b]pyridine-5,7-diamine], in that order: more than 100 µM and 0.44 µM.
Consider `CN1CCN(CCNc2cc(N)nc3cc(-c4ccn[nH]4)sc23)CC1` [Compound 57, N^7-(2-(4-methylpiperazin-1-yl)ethyl)-2-(1H-pyrazol-5-yl)thieno[3,2-b]pyridine-5,7-diamine], for which the EC50 on hTLR7 was more than 100 µM; at hNLRP3 inflammasome, 0.57 µM.
For `Nc1cc(NCCCNC(=O)C2CC2)c2sc(-c3ccn[nH]3)cc2n1` [Compound 58], in that order: more than 100 µM and 0.26 µM.
In the case of `Nc1cc(NCc2ccccn2)c2sc(-c3ccn[nH]3)cc2n1` [Compound 59, 2-(1H-pyrazol-5-yl)-N^7-(pyridin-2-ylmethyl)thieno[3,2-b]pyridine-5,7-diamine], the EC50 on hTLR7 was more than 100 µM; at hNLRP3 inflammasome it was 0.1 µM.
Turning to `Cn1ccc(CNc2cc(N)nc3cc(-c4ccn[nH]4)sc23)n1` [Compound 60, N^7-(1-methyl-1H-pyrazol-3-yl)methyl-2-(1H-pyrazol-5-yl)thieno[3,2-b]pyridine-5,7-diamine], the figures for the EC50 at hTLR7 and at hNLRP3 inflammasome were more than 100 µM and 0.1 µM, respectively.
The matching figures for `Nc1cc(NC2CCOC2)c2sc(-c3ccn[nH]3)cc2n1` (centres unmarked) [Compound 61, 2-(1H-pyrazol-5-yl)-N^7-(tetrahydrofuran-3-yl)thieno[3,2-b]pyridine-5,7-diamine]: more than 100 µM and 0.1 µM.
For `CC1CN(CCNc2cc(N)nc3cc(-c4ccn[nH]4)sc23)CC(C)O1` (centres unmarked) [Compound 62], in that order: more than 100 µM and 0.06 µM.
